The values below come from ChEMBL document CHEMBL1201862, “PubChem BioAssay data set” (2004).

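Method: 48-hour compound exposure of cells in 96-well plates, five concentrations, linear interpolation of endpoints. The concentration for 50% growth inhibition is given as GI50.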 Active and inactive are the calls of the source. Rule as the data show it: active = GI50 up to about 1.1 µM and inactive = higher.

What all share (assay): NCI anticancer screen, dose series, 48 h
Assay [1] has as its system HCT-15.
In assay [2] the test system is HL-60.
Assay [3] has as its system MOLT-4.
Assay [4] has as its system SK-MEL-2.
The subject of assay [5] is HOP-62.
In assay [6] the test system is CCRF-CEM.
Assay [7] concerns A498.
In assay [8] the test system is U-251.
For assay [9], the system named is OVCAR-5.
For assay [10], the system named is ACHN.
For assay [11], the system named is SF-539.
In assay [12] the test system is SF-268.
The test system of assay [13] is SNB-75.
Assay [14] deals with 786-0.
The test system of assay [15] is CAKI-1.
For assay [16], the system named is EKVX.

Consider `CCNC(=O)COc1ccc(Cl)c(C)c1`, for which the GI50 in [1] was > 100 µM; in assay [2], > 100 µM (inactive); in assay [3], > 100 µM (inactive); in assay [4] it was > 100 µM (inactive); in assay [5], > 100 µM (inactive); in assay [6], > 100 µM (inactive). For the same molecule, the GI50 in assay [7], in assay [8], in assay [9], in assay [10], in assay [11] and in assay [12] was > 100 µM (inactive) throughout. For the same molecule, the GI50 was 86.1 µM (inactive) in assay [13], > 100 µM (inactive) in assay [14] and > 100 µM (inactive) in assay [15].

As to `CC(=O)N1[C@H](C(=O)O)CS[C@H]1c1ccc(F)cc1`, the GI50 in [1] is > 100 µM; in [2] it was > 100 µM (inactive); in assay [3], > 100 µM (inactive); in [5] it was > 100 µM (inactive); in [6], > 100 µM (inactive); in [7], > 100 µM (inactive). The GI50 in assay [9], in [10], in [11], in [12], in [13] and in assay [14] was > 100 µM (inactive) each time. In addition, the GI50 in assay [15] was > 100 µM (inactive).

Consider `CC1(c2cccc(N)c2)C2C(=O)NC(=O)C1C(=O)NC2=O` (centres undefined), for which the GI50 in [1] is 36.2 µM; in assay [2], 19.6 µM (inactive); in assay [3], 18 µM (inactive); in assay [4], 24.3 µM (inactive); in [5] it was 32.2 µM (inactive); in [6], 22.4 µM (inactive). The GI50 in [7] was 23.4 µM (inactive); in [9] it was 38.6 µM (inactive); in [10], 28.2 µM (inactive); in assay [11], 28.6 µM (inactive); in assay [12], 35.7 µM (inactive); in assay [13], 28.1 µM (inactive). The values for the GI50 in assay [14], in assay [15] and in assay [16] were 38.3 µM (inactive), 61.9 µM (inactive) and 45 µM (inactive), respectively.

With `COc1ccc(/C(C)=N/NC(N)=S)c(OC)c1`, the GI50 in assay [1] was > 100 µM; in [2], 51.3 µM (inactive); in assay [3], > 100 µM (inactive); in assay [4], > 100 µM (inactive); in [5], > 100 µM (inactive); in assay [6] it was > 100 µM (inactive). Further, the GI50 is > 100 µM (inactive) in assay [7]; 49.1 µM (inactive) in assay [8]; > 100 µM (inactive) in assay [9]; > 100 µM (inactive) in assay [10]; > 100 µM (inactive) in [11]; > 100 µM (inactive) in assay [12]. Also, the GI50 was > 100 µM (inactive) in assay [13], > 100 µM (inactive) in assay [14], > 100 µM (inactive) in assay [15] and 63.4 µM (inactive) in assay [16].

`CC(C)(O)[C@@H]1CC[C@@]2(C)CCCC(O)C2(O)C1` (some centres undefined): the GI50 in assay [1] was > 100 µM; in [2], > 100 µM (inactive); in [3], > 100 µM (inactive); in [4], > 100 µM (inactive); in assay [5], > 100 µM (inactive); in [6], > 100 µM (inactive). In addition, the GI50 in assay [7], in [8], in assay [9], in assay [10], in assay [11] and in assay [12] was > 100 µM (inactive) throughout. Also, the GI50 in assay [13], in assay [14] and in [15] was > 100 µM (inactive) throughout.
